We go through 3 compounds from BindingDB's records for doi:10.1021/jm049768a (Eli Lilly, 2004).

The target of this experiment is 3-phosphoinositide-dependent protein kinase 1 (Homo sapiens) (UniProt O15530). The experiment can be described thus: Inhibition of human PDK-1.
Regarding `O=C1NC(=O)C(c2cnc3ccccn23)=C1c1cn2c3c(cccc13)CN(C(=O)N1CCCCC1)CC2` [3-Imidazo[1,2-a]pyridin-3-yl-4-[2-(piperidine-1-carbonyl)-1,2,3,4-tetrahydro-[1,4]diazepino[6,7,1-hi]indol-7-yl]-pyrrole-2,5-dione], 4.3 µM corresponded to half-maximal inhibition (IC50).
As for `CN(C)C(=O)N1CCn2cc(C3=C(c4cnc5ccccn45)C(=O)NC3=O)c3cccc(c32)C1` [7-(4-Imidazo[1,2-a]pyridin-3-yl-2,5-dioxo-2,5-dihydro-1H-pyrrol-3-yl)-3,4-dihydro-1H-[1,4]diazepino[6,7,1-hi]indole-2-carboxylic acid dimethylamide], the IC50 (commonly the concentration needed to halve the response being measured) was > 20 µM.
Take `CC(C)OC(=O)N1CCn2cc(C3=C(c4cnc5ccccn45)C(=O)NC3=O)c3cccc(c32)C1` [7-(4-Imidazo[1,2-a]pyridin-3-yl-2,5-dioxo-2,5-dihydro-1H-pyrrol-3-yl)-3,4-dihydro-1H-[1,4]diazepino[6,7,1-hi]indole-2-carboxylic acid isopropyl ester]: it took 6.5 µM to reach half-maximal inhibition (IC50).
